Measured values as given in patent US7999136B2 (priority 2007, dated 2011).

Columns and labels:
[1] = test system: Erysiphe graminis f. sp. tritici; assay: Test of preventive effect on wheat powdery mildew; format: in vivo; settings: wheat (Shirogane), foliage application 500 ppm, 7 days after inoculation
Method: (§1) The controlling effect was evaluated by visually observing the area or lesion spots on each of test plants at the time of investigation and comparing the area of lesion spots on a plant treated with the present compound with that on an untreated plant.
Test of Preventive Effect on Wheat Powdery Mildew (Erysiphe graminis f. sp. tritici)
Each of plastic pots was filled with sandy loam and sown with wheat (cultivar: Shirogane), followed by growing in a greenhouse for 10 days. The present compound 8 was formulated into a flowable formulation according to Formulation Example 6. The flowable formulation was diluted to a predetermined concentration (500 ppm) with water, and foliage application of the dilution was carried out so that the dilution adhered sufficiently to the surfaces of leaves of the grown wheat young seedling. After the foliage application, the plant was air-dried and then inoculated by sprinkling with spores of Erysiphe graminis f. sp. tritici. After the inoculation, the plant was held in a greenhouse at 23° C. for 7 days and the area of lesion spots was investigated.

[2] = test system: Puccinia recondita f. sp. tritici; assay: Test of curative effect on wheat leaf rust; format: in vivo; settings: wheat (Shirogane), foliage application 500 ppm, curative (1 day after inoculation), 6 days after application
Method: as §1
Test of Curative Effect on Wheat Leaf Rust (Puccinia recondita f. sp. tritici)
Each of plastic pots was filled with sandy loam and sown with wheat (cultivar: Shirogane), followed by growing in a greenhouse for 9 days. The plant was inoculated by sprinkling with spores of Puccinia recondita f. sp. tritici. After the inoculation, the plant was held under darkness and high humidity conditions at 23° C. for 1 day and then air-dried to give a seedling infected with Puccinia recondita f. sp. tritici. The present compound 10 was formulated into a flowable formulation according to Formulation Example 6. The flowable formulation was diluted to a predetermined concentration (500 ppm) with water, and foliage application of the dilution was carried out so that the dilution adhered sufficiently to the surfaces of leaves of the above plant. After the foliage application, the plant was air-dried and held under lighting conditions for 6 days, and then the area of lesions was investigated.

| Compound | area of lesion spots on the treated plant relative to that on an untreated plant [1] | area of lesion spots on the treated plant relative to that on an untreated plant [2] |
| --- | --- | --- |
| C#CCOc1cc(F)c(C(=O)NCC2CCCCC2)cc1F [compound 8] | ≤ 30% | – |
| C#CCOc1cc(F)c(C(=O)NC(C)C(C)C)cc1F (centres unmarked) [compound 10] | – | ≤ 30% |
